Assay results published in patent US20190345138A1, “HETEROCYCLIC AMIDES AS KINASE INHIBITORS” (GlaxoSmithKline Intellectual Property Development Limited, priority 2016, published 2019).
Values joined by “and” are separate entries in the source; they are usually repeats but may differ in a detail not shown here. Identical values can stand only once.

Tests used:
[1] = tested on: human monocytic leukemia U937 cells; test: necroptosis assay in U937 cells; assay type: cell-based; details: Homo sapiens, U-937, U937 cells; viability by cellular ATP (Cell Titer-Glo); read-out: pIC50, inhibited necrosis in U937 cells (converted)
Outline: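 Necroptosis was induced in human U937 or mouse L929 cells, and viability was quantified as cellular ATP with Cell Titer-Glo. Data are means±standard deviation.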

RIP1 kinase = target: T1, RIP1 kinase (Homo sapiens, UniProt Q13546); test: fluorescent polarization based binding assay; details: mean of a minimum of 2 experiments
T1 sequence (Q13546 1-375 limits assumed): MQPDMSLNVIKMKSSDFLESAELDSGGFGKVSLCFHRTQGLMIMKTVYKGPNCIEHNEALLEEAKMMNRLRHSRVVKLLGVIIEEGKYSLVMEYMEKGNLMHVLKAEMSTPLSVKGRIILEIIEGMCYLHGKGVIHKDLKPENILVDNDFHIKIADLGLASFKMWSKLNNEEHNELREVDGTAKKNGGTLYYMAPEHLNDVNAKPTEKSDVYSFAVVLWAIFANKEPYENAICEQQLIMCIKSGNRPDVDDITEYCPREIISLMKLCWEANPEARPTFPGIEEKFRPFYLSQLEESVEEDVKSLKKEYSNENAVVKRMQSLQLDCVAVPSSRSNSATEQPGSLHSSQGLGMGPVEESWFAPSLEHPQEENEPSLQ
Description: A fluorescent polarization based binding assay was used to assess the activity of the compounds of this invention, the details of which are disclosed in International Patent Appln. No. PCT/IB2014/059004, now, International Patent Appln. Pub.

Compound	IC50 (RIP1 kinase)	IC50 [1]
COc1cnc(N2CCC(C(=O)N3N=CC[C@H]3c3ccccc3)CC2)nc1 [Example 13, (S)-(1-(5-methoxypyrimidin-2-yl)piperidin-4-yl)(5-phenyl-4,5-dihydro-1H-pyrazol-1-yl)methanone]	1 to 31.6 nM and 1 to 10 nM	1 to 100 nM
O=C(C1CCN(c2ccc3nccn3n2)CC1)N1N=CC[C@H]1c1ccccc1 [Example 22, (S)-(1-(imidazo[1,2-b]pyridazin-6-yl)piperidin-4-yl)(5-phenyl-4,5-dihydro-1H-pyrazol-1-yl)methanone]	1 to 31.6 nM and 1 to 10 nM	1 to 100 nM
CSc1nccc(N2CCC(C(=O)N3N=CC[C@H]3c3cc(F)cc(F)c3)CC2)n1 [Example 82, (S)-(5-(3,5-difluorophenyl)-4,5-dihydro-1H-pyrazol-1-yl)(1-(2-(methylthio)pyrimidin-4-yl)piperidin-4-yl)methanone]	1 to 31.6 nM and 1 to 10 nM	1 to 100 nM
COc1cnc(N2CCC(C(=O)N3N=CCC3c3ccccc3)CC2)nc1 (racemic) [Example 7, (1-(5-methoxypyrimidin-2-yl)piperidin-4-yl)(5-phenyl-4,5-dihydro-1H-pyrazol-1-yl)methanone]	1 to 31.6 nM	1 to 100 nM
NC(=O)c1csc(N2CCC(C(=O)N3N=CC[C@H]3c3ccccc3)CC2)n1 [Example 56, (S)-2-(4-(5-phenyl-4,5-dihydro-1H-pyrazole-1-carbonyl)piperidin-1-yl)thiazole-4-carboxamide]	1 to 31.6 nM	1 to 100 nM
O=C(C1CCN(c2ccc(C(F)(F)F)nn2)CC1)N1N=CC[C@H]1c1ccccc1 [Example 26, (S)-(5-phenyl-4,5-dihydro-1H-pyrazol-1-yl)(1-(6-(trifluoromethyl)pyridazin-3-yl)piperidin-4-yl)methanone]	1 to 31.6 nM	1 to 100 nM
N#Cc1cncnc1N1CCC(C(=O)N2N=CC[C@H]2c2cc(F)cc(F)c2)CC1 [Example 88, (S)-4-(4-(5-(3,5-difluorophenyl)-4,5-dihydro-1H-pyrazole-1-carbonyl)piperidin-1-yl)pyrimidine-5-carbonitrile]	1 to 31.6 nM	1 to 100 nM
O=C(C1CCN(c2cnc3ccccc3n2)CC1)N1N=CC[C@H]1c1ccccc1 [Example 39, (S)-(5-phenyl-4,5-dihydro-1H-pyrazol-1-yl)(1-(quinoxalin-2-yl)piperidin-4-yl)methanone]	1 to 31.6 nM and 1 to 10 nM	1 to 100 nM
COc1cncc(N2CCC(C(=O)N3N=CC[C@H]3c3ccccc3)CC2)n1 [Example 48, (S)-(1-(6-methoxypyrazin-2-yl)piperidin-4-yl)(5-phenyl-4,5-dihydro-1H-pyrazol-1-yl)methanone]	1 to 31.6 nM	1 to 100 nM
N#Cc1cnc(N2CCC(C(=O)N3N=CC[C@H]3c3cc(F)cc(F)c3)CC2)nc1 [Example 92, (S)-2-(4-(5-(3,5-difluorophenyl)-4,5-dihydro-1H-pyrazole-1-carbonyl)piperidin-1-yl)pyrimidine-5-carbonitrile]	1 to 31.6 nM and 1 to 10 nM	1 to 100 nM
COc1ccnc(N2CCC(C(=O)N3N=CC[C@H]3c3cccc(C#N)c3)CC2)n1 [Example 69, (S)-3-(1-(1-(4-methoxypyrimidin-2-yl)piperidine-4-carbonyl)-4,5-dihydro-1H-pyrazol-5-yl)benzonitrile]	1 to 31.6 nM and 1 to 10 nM	1 to 100 nM
COc1cc(N2CCC(C(=O)N3N=CC[C@H]3c3ccccc3)CC2)ncn1 [Example 12, (S)-(1-(6-methoxypyrimidin-4-yl)piperidin-4-yl)(5-phenyl-4,5-dihydro-1H-pyrazol-1-yl)methanone]	1 to 31.6 nM and 1 to 10 nM	1 to 100 nM
N#Cc1cncc(N2CCC(C(=O)N3N=CC[C@H]3c3ccccc3)CC2)n1 [Example 47, (S)-6-(4-(5-phenyl-4,5-dihydro-1H-pyrazole-1-carbonyl)piperidin-1-yl)pyrazine-2-carbonitrile]	1 to 31.6 nM	1 to 100 nM
COc1nccc(N2CCC(C(=O)N3N=CC[C@H]3c3ccccc3)CC2)n1 [Example 17, (S)-(1-(2-methoxypyrimidin-4-yl)piperidin-4-yl)(5-phenyl-4,5-dihydro-1H-pyrazol-1-yl)methanone]	1 to 31.6 nM and 1 to 10 nM	1 to 100 nM
N#Cc1cccc([C@@H]2CC=NN2C(=O)C2CCN(c3ncc(F)c(N)n3)CC2)c1 [Example 72, (S)-3-(1-(1-(4-amino-5-fluoropyrimidin-2-yl)piperidine-4-carbonyl)-4,5-dihydro-1H-pyrazol-5-yl)benzonitrile]	1 to 31.6 nM	1 to 100 nM
Nc1nccc(N2CCC(C(=O)N3N=CC[C@H]3c3ccccc3)CC2)n1 [Example 11, (S)-(1-(2-aminopyrimidin-4-yl)piperidin-4-yl)(5-phenyl-4,5-dihydro-1H-pyrazol-1-yl)methanone]	1 to 31.6 nM	1 to 100 nM

More lines, main results first:

IC50 (RIP1 kinase)	Compound	IC50 [1]
1 to 31.6 nM	O=C(C1CCN(c2nccc(=O)[nH]2)CC1)N1N=CC[C@H]1c1cc(F)cc(F)c1 [Example 97, (S)-2-(4-(5-(3,5-difluorophenyl)-4,5-dihydro-1H-pyrazole-1-carbonyl)piperidin-1-yl)pyrimidin-4(3H)-one]	1 to 100 nM
1 to 31.6 nM and 1 to 10 nM	N#Cc1cnc(N2CCC(C(=O)N3N=CC[C@H]3c3ccccc3)CC2)o1 [Example 138, (S)-2-(4-(5-phenyl-4,5-dihydro-1H-pyrazole-1-carbonyl)piperidin-1-yl)oxazole-5-carbonitrile]	1 to 100 nM
1 to 31.6 nM and 1 to 10 nM	N#Cc1cnc(N2CCC(C(=O)N3N=CC[C@H]3c3cc(F)ccc3F)CC2)cn1 [Example 103, (S)-5-(4-(5-(2,5-difluorophenyl)-4,5-dihydro-1H-pyrazole-1-carbonyl)piperidin-1-yl)pyrazine-2-carbonitrile]	1 to 100 nM
1 to 31.6 nM	NC(=O)c1nc(N2CCC(C(=O)N3N=CC[C@H]3c3cncc(F)c3)CC2)ncc1F [Example 161, (S)-5-fluoro-2-(4-(5-(5-fluoropyridin-3-yl)-4,5-dihydro-1H-pyrazole-1-carbonyl)piperidin-1-yl)pyrimidine-4-carboxamide]	1 to 100 nM
1 to 31.6 nM and 1 to 10 nM	O=C(C1CCN(c2nccc(C3=NCCN3)n2)CC1)N1N=CC[C@H]1c1ccccc1 [Example 140, (S)-(1-(4-(4,5-dihydro-1H-imidazol-2-yl)pyrimidin-2-yl)piperidin-4-yl)(5-phenyl-4,5-dihydro-1H-pyrazol-1-yl)methanone]	1 to 100 nM
1 to 31.6 nM	O=C(NC1CCNCC1)c1ccnc(N2CCC(C(=O)N3N=CC[C@H]3c3ccccc3)CC2)n1 [Example 147, (S)-2-(4-(5-phenyl-4,5-dihydro-1H-pyrazole-1-carbonyl)piperidin-1-yl)-N-(piperidin-4-yl)pyrimidine-4-carboxamide]	1 to 100 nM
1 to 31.6 nM and 1 to 10 nM	COc1cnc(N2CCC(C(=O)N3N=CC[C@H]3c3cc(F)ccc3F)CC2)nc1 [Example 101, (S)-(5-(2,5-difluorophenyl)-4,5-dihydro-1H-pyrazol-1-yl)(1-(5-methoxypyrimidin-2-yl)piperidin-4-yl)methanone]	1 to 100 nM
1 to 31.6 nM	O=C(C1CCN(c2ncc(O)cn2)CC1)N1N=CC[C@H]1c1ccccc1 [Example 128, (S)-(1-(5-hydroxypyrimidin-2-yl)piperidin-4-yl)(5-phenyl-4,5-dihydro-1H-pyrazol-1-yl)methanone]	1 to 100 nM
1 to 31.6 nM and 1 to 10 nM	N#Cc1coc(N2CCC(C(=O)N3N=CC[C@H]3c3cc(F)cc(F)c3)CC2)n1 [Example 135, (S)-2-(4-(5-(3,5-difluorophenyl)-4,5-dihydro-1H-pyrazole-1-carbonyl)piperidin-1-yl)oxazole-4-carbonitrile]	1 to 100 nM
1 to 31.6 nM	Nc1nc(N2CCC(C(=O)N3N=CC[C@H]3c3cncc(F)c3)CC2)ncc1F [Example 112, (S)-(1-(4-amino-5-fluoropyrimidin-2-yl)piperidin-4-yl)(5-(5-fluoropyridin-3-yl)-4,5-dihydro-1H-pyrazol-1-yl)methanone]	1 to 100 nM
1 to 31.6 nM and 1 to 10 nM	O=C1NCCC1c1nc(N2CCC(C(=O)N3N=CC[C@H]3c3ccccc3)CC2)ncc1F (stereo partly drawn) [Example 150, 3-(5-fluoro-2-(4-((S)-5-phenyl-4,5-dihydro-1H-pyrazole-1-carbonyl)piperidin-1-yl)pyrimidin-4-yl)pyrrolidin-2-one]	1 to 100 nM
1 to 31.6 nM	NC(=O)c1cnc(N2CCC(C(=O)N3N=CC[C@H]3c3cc(F)cc(F)c3)CC2)nc1 [Example 96, (S)-2-(4-(5-(3,5-difluorophenyl)-4,5-dihydro-1H-pyrazole-1-carbonyl)piperidin-1-yl)pyrimidine-5-carboxamide]	1 to 100 nM
1 to 31.6 nM and 1 to 10 nM	N#Cc1cnc(N2CCC(C(=O)N3N=CC[C@H]3c3cc(F)cc(F)c3)CC2)o1 [Example 133, (S)-2-(4-(5-(3,5-difluorophenyl)-4,5-dihydro-1H-pyrazole-1-carbonyl)piperidin-1-yl)oxazole-5-carbonitrile]	1 to 100 nM
1 to 31.6 nM	CC(=O)N1CCC(NC(=O)c2ccnc(N3CCC(C(=O)N4N=CC[C@H]4c4ccccc4)CC3)n2)CC1 [Example 144, (S)-N-(1-acetylpiperidin-4-yl)-2-(4-(5-phenyl-4,5-dihydro-1H-pyrazole-1-carbonyl)piperidin-1-yl)pyrimidine-4-carboxamide]	1 to 100 nM
